One may read the IC50 as the concentration at which inhibition is half-maximal. By MIC is commonly meant the smallest concentration in the dilution series that meets the test's criterion for growth inhibition.

Results on one molecule are retold here after ChEMBL document CHEMBL1150885, “Antibacterial activity of lonchocarpol A” (J Nat Prod, 1998).

In brackets after ≈: the same amount, converted by molar mass.

Data set [1] concerns Priestia megaterium. Kind of data set: Inhibition of RNA synthesis in Bacillus megaterium Mb 410 assessed as [5,6-3H]uracil incorporation by scintillation counting. Type of data set: functional, organism-based.
Data set [2] concerns Staphylococcus aureus. Kind of data set: Antibacterial activity against methicillin-resistant Staphylococcus aureus after 24 hrs by broth microtiter susceptibility assay in presence of mouse plasma. The data set is classed as functional.
In data set [3] the test system is Enterococcus faecium. Nature of the data set: Antibacterial activity against vancomycin-resistant Enterococcus faecium after 24 hrs by broth microtiter susceptibility assay in presence of mouse plasma. The data set is classed as functional.
In data set [4] the test system is Enterococcus faecium. Kind of data set: Antibacterial activity against vancomycin-resistant Enterococcus faecium after 24 hrs by broth microtiter susceptibility assay in absence of mouse plasma. Type of data set: functional.
Data set [5] is described as follows: Toxicity in defibrinated sheep RBC assessed as minimum lytic concentration causing hemolysis after 2 hrs by liquid microtiter assay. The data set is classed as cell-based, Ovis aries. The settings on record: erythrocyte.
Data set [6] has as its system Priestia megaterium. Nature of the data set: Antibacterial activity against Bacillus megaterium Mb 410 after 24 hrs by broth microtiter susceptibility assay in absence of mouse plasma. The data set is classed as functional.
Data set [7] deals with Priestia megaterium. Nature of the data set: Inhibition of DNA synthesis in Bacillus megaterium Mb 410 assessed as [6-3H]thymidine incorporation by scintillation counting. Type of data set: functional, organism-based. For orientation: Dividing cells build labelled thymidine or BrdU into new DNA.
For data set [8], the system named is Staphylococcus aureus. Kind of data set: Antibacterial activity against methicillin-resistant Staphylococcus aureus after 24 hrs by broth microtiter susceptibility assay in absence of mouse plasma. Type of data set: functional.
Data set [9] deals with L1210. Nature of the data set: Cytotoxicity against mouse L1210 cells by MTT assay. Type of data set: functional, cell-based.
Data set [10] deals with Priestia megaterium. Kind of data set: Inhibition of cell wall synthesis in Bacillus megaterium Mb 410 assessed as [2,6-3H]diaminopimelic incorporation by scintillation counting. The data set is classed as functional, organism-based.
The subject of data set [11] is Priestia megaterium. Kind of data set: Inhibition of protein synthesis in Bacillus megaterium Mb 410 assessed as L-[4,5-3H]leucine incorporation by scintillation counting. Type of data set: functional, organism-based.
In data set [12] the test system is Mycolicibacterium smegmatis. Kind of data set: Antibacterial activity against Mycobacterium smegmatis after 24 hrs by broth microtiter susceptibility assay in presence of mouse plasma. The data set is classed as functional.
The subject of data set [13] is Mycolicibacterium smegmatis. Kind of data set: Antibacterial activity against Mycobacterium smegmatis after 24 hrs by broth microtiter susceptibility assay in absence of mouse plasma. The data set is classed as functional.
The subject of data set [14] is L1210. Kind of data set: Cytotoxicity against mouse L1210 cells after 24 hrs by trypan blue assay. Type of data set: functional, cell-based. The settings on record: L1210, 24 h.

As for `CC(C)=CCc1c(O)c(CC=C(C)C)c2c(c1O)C(=O)C[C@@H](c1ccc(O)cc1)O2` [LONCHOCARPOL A], the IC50 was 1.9 µg/mL (≈ 4.65 µM) with Priestia megaterium [1]; 3.9 µg/mL (≈ 9.55 µM) with Priestia megaterium [7]; above 10 µg/mL in the data set with L1210 [9]; 1.9 µg/mL (≈ 4.65 µM) with Priestia megaterium [10]; 2.5 µg/mL (≈ 6.12 µM) with Priestia megaterium [11]; 10 µg/mL (≈ 24.5 µM) in the data set with L1210 [14]. For the same molecule, the minimum inhibitory concentration (MIC) was at least 100 µg/mL in the data set on Staphylococcus aureus [2]; at least 100 µg/mL in the data set with Enterococcus faecium [3]; 0.78 µg/mL (≈ 1.91 µM) in the data set with Enterococcus faecium [4]; 1 µg/mL (≈ 2.45 µM) against Priestia megaterium [6]; 0.78 µg/mL (≈ 1.91 µM) with Staphylococcus aureus [8]; at least 100 µg/mL in data set [12]. Further, the minimum inhibitory concentration (MIC) in [13] is above 100 µg/mL. Moreover, the Activity result in data set [5] was “>= 100 ug ml-1”.
